Data taken from patent US20230106836A1, “METHOD OF USING BIOSURFACTANT-PRODUCING BACTERIA AGAINST FUNGAL AND BACTERIAL PATHOGENS” (THE ROYAL INSTITUTION FOR THE ADVANCEMENT OF …, priority 2020, published 2023).

Experiments:
[1] = tested on: Salmonella enterica serovars; assay: Diffusion plate assay of TLC fractions, organic acids and bleach; format: cell-based; conditions: organic acids 1%, bleach 1.3%
Description: (§1) Bacterial cells were removed by centrifugation (5000×g at 4° C.) and the cell—free supernatant (CFS) was acidified to pH 2.0 with 2N HCL at 4° C. for 16 h resulting in a precipitate that was collected by centrifugation (5000×g for 10 min at 4° C.). The acid precipitate fraction (APF) was dissolved in water (100 mg/mL) and adjusted to pH 7.0 using 1N NaOH. The CFS sample and clean BHM culture medium were concentrated by freeze-drying for 48 h. All samples were stored at −80° C. until further use.
Separation of CFS and APF fractions was performed by thin layer chromatography (TLC). Acid-cleaned glass plates (20×20 cm) were coated with a thin layer of silica emulsion (160 grams of silica with 15% (w/v) calcium sulphate and with fluorescent indicator GF254 dissolved in 500 mL of double distilled water) purchased from Sigma-Aldrich and dried for 16-18 h at 22° C. Activation of silica plates was done by heating the TLC plates at 120° C. for 30 min prior to use. An amount of 100 mg of each of CFS and APF were dissolved in 400 μL of chloroform: methanol (2:1, v/v) and separated on activated TLC plates with chloroform: methanol: water (70:26:4) as the developing solvent system. Plates were observed under UV (λ=254 nm) and the retention factor (Rf) values were calculated as distance travelled by the samples over the distance travelled by solvent. […] Bands corresponding to the desired Rf values were scraped and collected for extraction. Bands of the same Rf value from different plates were pooled together and extracted twice with chloroform: methanol (v/v/; 2:1). The collected fractions were vacuum-concentrated for 4-6 h at −60° C. using a Speed Vac™ v78100 (Labconco Corp, Kansas City Mo., USA), re-dissolved in 50 μL of methanol and tested against target bacteria and fungi, as well as for biosurfactant activity. Methanol (50 μL) was used as a negative control.
(§2) The biosurfactant activity of the fractions was tested using the oil-spreading and the drop collapse methods, as described above. Fractions were also tested for their antimicrobial activities against a number of bacteria and fungi using the Burkholder diffusion plate method as noted above. Briefly, 10 μL of the dissolved fractions were spotted in the middle of the plates. Positive controls consisted of 10 μL of bleach and of each of the following organic acids: 1% (v/v) of acetic acid, formic acid, citric acid and lactic acid. […] Individual trials were performed in triplicate and the entire assay was repeated twice to confirm the findings.

[2] = tested on: X. campestris; assay: as above; format: cell-based; conditions: strain B07.007, Xanthomonas campestris; organic acids 1%, bleach 1.3%
Description: as §1
(§3) Separation of CFS and APF fractions was performed by thin layer chromatography (TLC). Acid-cleaned glass plates (20×20 cm) were coated with a thin layer of silica emulsion (160 grams of silica with 15% (w/v) calcium sulphate and with fluorescent indicator GF254 dissolved in 500 mL of double distilled water) purchased from Sigma-Aldrich and dried for 16-18 h at 22° C. Activation of silica plates was done by heating the TLC plates at 120° C. for 30 min prior to use. An amount of 100 mg of each of CFS and APF were dissolved in 400 μL of chloroform: methanol (2:1, v/v) and separated on activated TLC plates with chloroform: methanol: water (70:26:4) as the developing solvent system. Plates were observed under UV (λ=254 nm) and the retention factor (Rf) values were calculated as distance travelled by the samples over the distance travelled by solvent. Only APF separated fractions were used for bioactivity assays. Bands corresponding to the desired Rf values were scraped and collected for extraction. Bands of the same Rf value from different plates were pooled together and extracted twice with chloroform: methanol (v/v/; 2:1). The collected fractions were vacuum-concentrated for 4-6 h at −60° C. using a Speed Vac™ v78100 (Labconco Corp, Kansas City Mo., USA), re-dissolved in 50 μL of methanol and tested against target bacteria and fungi, as well as for biosurfactant activity. Methanol (50 μL) was used as a negative control.
as §2

[3] = tested on: E. coli; assay: as above; format: cell-based, Escherichia coli; conditions: organic acids 1%, bleach 1.3%
Description: as §1, §3, §2

[4] = tested on: Rhizoctonia solani; assay: Antimicrobial assay of TLC fractions against fungi; format: cell-based; conditions: organic acids 1%, bleach 1.3%
Description: as §1, §3, §2

[5] = tested on: Botrytis cinerea; assay: Antimicrobial assay of TLC fractions against fungi; format: cell-based; conditions: strain F014, Botrytis cinerea; organic acids 1%, bleach 1.3%
Description: as §1, §3, §2

[6] = strain AG1-1A (ROS-2A), R. solani
[7] = strain AG3 (114), Rhizoctonia solani

Structure (SMILES) | Microbial activity (clearing zone), fractions, organic acids and bleach ([1]; strain MAE14, S. enterica Typhimurium) | Microbial activity (clearing zone), fractions, organic acids and bleach ([1]; strain MAE299, S. enterica Typhimurium) | Microbial activity (clearing zone), fractions, organic acids and bleach ([1]; strain MAE775, S. enterica Typhimurium) | Microbial activity (clearing zone), fractions, organic acids and bleach ([1]; strain PARC#5, S. enterica Agona) | Microbial activity (clearing zone), fractions, organic acids and bleach ([1]; strain SCS2, S. enterica I: Rough-O: e, h: e, n) | Microbial activity (clearing zone), fractions, organic acids and bleach ([1]; strain SL1, S. enterica Newport) | Microbial activity (clearing zone), fractions, organic acids and bleach ([1]; strain SL2, S. enterica Hartford) | Microbial activity (clearing zone), fractions, organic acids and bleach ([1]; strain UMR1, Salmonella enterica Typhimurium) | Microbial activity (clearing zone), fractions, organic acids and bleach [2] | Microbial activity (clearing zone), fractions, organic acids and bleach ([3]; strain E3-6, Escherichia coli) | Microbial activity (clearing zone), fractions, organic acids and bleach ([3]; strain E10-6, E. coli) | Microbial activity (clearing zone), fractions, organic acids and bleach ([3]; strain E14-6, E. coli) | Microbial activity (clearing zone), fractions, organic acids and bleach ([3]; strain E15-6, E. coli) | Microbial activity (clearing zone), fractions, organic acids and bleach [4, 6] | Microbial activity (clearing zone), fractions, organic acids and bleach [4, 7] | Microbial activity (clearing zone), fractions, organic acids and bleach [5]
CC(=O)O [AA] | ++ ((++) clearing zone of 4 mm) | ++ ((++) clearing zone of 4 mm) | +++ (clearing zone of 5 mm (+++)) | ++ ((++) clearing zone of 4 mm) | ++ ((++) clearing zone of 4 mm) | ++ ((++) clearing zone of 4 mm) | ++ ((++) clearing zone of 4 mm) | ++ ((++) clearing zone of 4 mm) | +++ (clearing zone of 5 mm (+++)) | ++ ((++) clearing zone of 4 mm) | ++ ((++) clearing zone of 4 mm) | ++ ((++) clearing zone of 4 mm) | ++ ((++) clearing zone of 4 mm) | ++ ((++) clearing zone of 4 mm) | ++ ((++) clearing zone of 4 mm) | ++ ((++) clearing zone of 4 mm)
O=C(O)CC(O)(CC(=O)O)C(=O)O [CA] |  |  |  |  |  |  |  |  | ++ ((++) clearing zone of 4 mm) | + ((+) clearing zone of 3 mm) | + ((+) clearing zone of 3 mm) | + ((+) clearing zone of 3 mm) | + ((+) clearing zone of 3 mm) | + ((+) clearing zone of 3 mm) | + ((+) clearing zone of 3 mm) | + ((+) clearing zone of 3 mm)
CC(O)C(=O)O (stereo not shown) [LA] |  |  |  |  |  |  |  |  | ++ ((++) clearing zone of 4 mm) | + ((+) clearing zone of 3 mm) | + ((+) clearing zone of 3 mm) | + ((+) clearing zone of 3 mm) | + ((+) clearing zone of 3 mm) | + ((+) clearing zone of 3 mm) | + ((+) clearing zone of 3 mm) | + ((+) clearing zone of 3 mm)
O=CO [FA] |  |  |  |  |  |  |  |  | +++ (clearing zone of 5 mm (+++)) | +++ (clearing zone of 5 mm (+++)) | +++ (clearing zone of 5 mm (+++)) | +++ (clearing zone of 5 mm (+++)) | +++ (clearing zone of 5 mm (+++)) | +++ (clearing zone of 5 mm (+++)) | +++ (clearing zone of 5 mm (+++)) | +++ (clearing zone of 5 mm (+++))
